Experiments:
[1] = target: T1, β-phosphoglucomutase (βPGM WT) (Lactococcus lactis, UniProt P71447); parameters: gene pgmB
[2] = target: T2, β-phosphoglucomutase (βPGM R49K) (Lactococcus lactis, UniProt P71447, R49K); test: enzyme kinetics (kcat/Km), G6PDH coupled assay; […] NMR time course; type: biochemical
T2 construct: gene pgmB; full length

[3] = target: T1, β-phosphoglucomutase (βPGM WT); test: as above; type: biochemical; parameters: gene pgmB; full length
[4] = target: T3, β-phosphoglucomutase (βPGM R49A) (Lactococcus lactis, UniProt P71447, R49A); test: as above; type: biochemical
T3 construct: gene pgmB; full length

Row | Structure (SMILES) | crystal structure (1.8 Å), open conformation [1] | enzyme kinetics (kcat/Km), G6PDH coupled assay; 31P NMR time course [2] | enzyme kinetics (kcat/Km), G6PDH coupled assay; 31P NMR time course [3] | enzyme kinetics (kcat/Km), G6PDH coupled assay; 31P NMR time course [4]
1 | O=P(O)(O)O [Pi, phosphate] | a phosphate anion coordinated in the distal site by the guanidinium group of R49 |  |  | 
2 | O=P(O)(O)O[C@@H]1O[C@H](CO)[C@@H](O)[C@H](O)[C@H]1O [βG1P, β-glucose 1-phosphate] |  | 0.05 s^–1·μM^–1 | 0.29 s^–1·μM^–1 | 0.02 s^–1·μM^–1
